Measured values reported in patent US7816522B2, “Triazolone derivatives” (Eisai Co., Ltd., priority 2006, dated 2010).

Biological target: T1, human clotting factor VIIa (Homo sapiens, UniProt P08709)
T1 construct: a human clotting factor VIIa (hereinafter, “Factor VIIa”) purified sample; purchased Enzyme Research Laboratories HFVIIa
Experiment: Inhibitory activity against clotting factor VIIa (chromogenic substrate Spectrozyme FVIIa, TF/Factor VIIa enzyme solution)
Format: biochemical
Settings: human Factor VIIa 5 nmol/L with human TF 10 nmol/L, room temperature 40 minutes, 405 nm
Procedure, shortened: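 Human Factor VIIa (5 nmol/L) with human TF (10 nmol/L) in Tris-BSA buffer pH 7.4 containing 15 mmol/L CaCl2 and cephalin, with Spectrozyme FVIIa substrate. Reaction 40 min at room temperature; 4-nitroanilide read at 405 nm. IC50 by non-linear regression over 100 μmol/L–0.1 nmol/L.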

T1 sequence (P08709 213-466 limits assumed): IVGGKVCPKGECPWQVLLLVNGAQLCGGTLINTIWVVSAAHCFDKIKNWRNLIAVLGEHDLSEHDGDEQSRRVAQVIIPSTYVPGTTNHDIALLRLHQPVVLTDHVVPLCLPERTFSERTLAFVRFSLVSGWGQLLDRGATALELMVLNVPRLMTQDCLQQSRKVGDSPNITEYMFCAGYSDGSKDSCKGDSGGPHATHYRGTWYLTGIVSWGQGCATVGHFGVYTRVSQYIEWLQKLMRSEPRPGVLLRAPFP
T1 sequence (P08709 61-212 limits assumed): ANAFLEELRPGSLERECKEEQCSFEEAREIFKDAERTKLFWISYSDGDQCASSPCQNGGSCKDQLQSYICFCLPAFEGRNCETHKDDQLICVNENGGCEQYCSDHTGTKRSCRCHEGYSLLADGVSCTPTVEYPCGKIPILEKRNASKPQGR
T1 sequence (P13726 33-295 partner): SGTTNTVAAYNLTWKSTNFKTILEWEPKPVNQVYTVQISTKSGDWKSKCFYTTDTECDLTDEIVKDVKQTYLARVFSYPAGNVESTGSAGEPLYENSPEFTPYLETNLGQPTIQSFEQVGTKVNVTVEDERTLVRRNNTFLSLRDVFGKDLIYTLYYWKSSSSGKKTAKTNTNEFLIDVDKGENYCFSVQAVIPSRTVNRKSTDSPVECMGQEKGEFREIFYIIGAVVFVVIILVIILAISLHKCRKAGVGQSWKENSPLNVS

Row | IC50 | SMILES
1 | 14.3 nM | COc1cc(C(Nc2ccc(C(=N)N)cc2)c2nn(-c3ccccc3C(=O)O)c(=O)[nH]2)c(F)cc1OCCO (racemic) [Example 178, (R) and (S)-2-(3-{(4-carbamimidoylphenylamino)-[2-fluoro-4-(2-hydroxyethoxy)-5-methoxyphenyl]methyl}-5-oxo-4,5-dihydro-[1,2,4]triazol-1-yl)benzoic acid]
2 | 10.6 nM | COc1ccc(C(Nc2ccc(C(=N)N)c(O)c2)c2nn(-c3ccccc3C(=O)O)c(=O)[nH]2)cc1OC (racemic) [Example 183, 2-{3-[(R) and (S)-(4-carbamimidoyl-3-hydroxyphenylamino)-(3,4-dimethoxyphenyl)methyl]-5-oxo-4,5-dihydro-[1,2,4]triazol-1-yl}benzoic acid]
3 | 6.7 nM | COc1cc(F)c(C(Nc2ccc(C(=N)N)cc2)c2nn(-c3ncccc3F)c(=O)[nH]2)cc1OC (racemic) [Example 184, (R) and (S)-4-({(2-fluoro-4,5-dimethoxyphenyl)-[1-(3-fluoropyridin-2-yl)-5-oxo-4,5-dihydro-1H-[1,2,4]triazol-3-yl]methyl}amino)benzamidine acetate]
4 | 4.6 nM | COc1cc(C(Nc2ccc(C(=N)N)cc2)c2nn(-c3ncccc3N)c(=O)[nH]2)cnc1OC (racemic) [Example 186, 4-{[(R) and (S)-[1-(3-Aminopyridin-2-yl)-5-oxo-4,5-dihydro-1H-[1,2,4]triazol-3-yl]-(5,6-dimethoxypyridin-3-yl)methyl]amino}benzamidine acetate]
5 | 15.7 nM | COc1ccc(C(Nc2ccc(C(=N)N)cc2)c2nn(-c3ncsc3C(=O)O)c(=O)[nH]2)cc1OC (racemic) [Example 193, (R) and (S)-4-{3-[(4-Carbamimidoylphenylamino)-(3,4-dimethoxyphenyl)methyl]-5-oxo-4,5-dihydro-[1,2,4]triazol-1-yl}-thiazole-5-carboxylic acid]
6 | 74.5 nM | COc1cc(F)c(C(Nc2ccc(C(=N)N)cc2)c2nn(-c3[nH]ncc3C(=O)O)c(=O)[nH]2)cc1OC (racemic) [Example 194, (R) and (S)-5-{3-[(4-Carbamimidoylphenylamino)-(2-fluoro-4,5-dimethoxyphenyl)methyl]-5-oxo-4,5-dihydro-[1,2,4]triazol-1-yl}-1H-pyrazole-4-carboxylic acid acetate]
7 | 24.1 nM | COc1cc(OCCO)c(F)c(C(Nc2ccc(C(=N)N)cc2)c2nn(-c3ncc[nH]c3=O)c(=O)[nH]2)c1 (racemic) [Example 199, (R) and (S)-4-({[2-Fluoro-3-(2-hydroxyethoxy)-5-methoxyphenyl]-[5-oxo-1-(3-oxo-3,4-dihydropyrazin-2-yl)-4,5-dihydro-1H-[1,2,4]triazol-3-yl]methyl}amino)benzamidine acetate]
8 | 7.8 nM | COc1cc(OCCO)c(F)c(C(Nc2ccc(C(=N)N)cc2)c2nn(-c3ncccc3N)c(=O)[nH]2)c1 (racemic) [Example 201, 4-({(R) and (S)-[1-(3-Aminopyridin-2-yl)-5-oxo-4,5-dihydro-1H-[1,2,4]triazol-3-yl]-[2-fluoro-3-(2-hydroxyethoxy)-5-methoxyphenyl]methyl}amino)benzamidine acetate]
9 | 8.5 nM | COCCOc1cc(OC)cc(C(Nc2ccc(C(=N)N)cc2)c2nn(-c3ncccc3N)c(=O)[nH]2)c1F (racemic) [Example 203, 4-({(R) and (S)-[1-(3-Aminopyridin-2-yl)-5-oxo-4,5-dihydro-1H-[1,2,4]triazol-3-yl]-[2-fluoro-5-methoxy-3-(2-methoxyethoxy)phenyl]methyl}amino)benzamidine acetate]
10 | 2.3 nM | CCc1cc(OCCCO)c(F)c(C(Nc2ccc(C(=N)N)cc2)c2nn(-c3ncccc3N)c(=O)[nH]2)c1 (racemic) [Example 205, (R) and (S)-4-({[1-(3-Aminopyridin-2-yl)-5-oxo-4,5-dihydro-1H-[1,2,4]triazol-3-yl]-[5-ethyl-2-fluoro-3-(3-hydroxypropoxy)phenyl]methyl}amino)benzamidine acetate]
11 | 85.6 nM | COc1cc(C(Nc2ccc(C(=N)N)cc2)c2nn(-c3ncccn3)c(=O)[nH]2)c(F)cc1OCCO (racemic) [Example 208, 4-{[(R) and (S)-[2-Fluoro-4-(2-hydroxyethoxy)-5-methoxyphenyl]-(5-oxo-1-pyrimidin-2-yl-4,5-dihydro-1H-[1,2,4]triazol-3-yl)methyl]amino}benzamidine acetate]
12 | 3.3 nM | COc1cc(C(Nc2ccc(C(=N)N)cc2)c2nn(-c3ccccn3)c(=O)[nH]2)cc2c1OCOC2 (racemic) [Example 213, (R) and (S)-4-{[(8-Methoxy-4H-benzo[1,3]dioxin-6-yl)-(5-oxo-1-pyridin-2-yl-4,5-dihydro-1H-[1,2,4]triazol-3-yl)methyl]amino}benzamidine acetate]
13 | 3.1 nM | COc1cc(O[C@@H](C)CO)c(F)c(C(Nc2ccc(C(=N)N)cc2)c2nn(-c3ncccn3)c(=O)[nH]2)c1 (mixture of isomers) [Example 217, (R) and (S)-4-{[[2-Fluoro-3-((S)-2-hydroxy-1-methylethoxy)-5-methoxyphenyl]-(5-oxo-1-pyrimidin-2-yl-4,5-dihydro-1H-[1,2,4]triazol-3-yl)methyl]amino}benzamidine acetate]
14 | 9.5 nM | CCOc1cc(OCCO)c(F)c(C(Nc2ccc(C(=N)N)cc2)c2nn(-c3ncccn3)c(=O)[nH]2)c1 (racemic) [Example 219, (R) and (S)-4-{[[5-Ethoxy-2-fluoro-3-(2-hydroxyethoxy)phenyl]-(5-oxo-1-pyrimidin-2-yl-4,5-dihydro-1H-[1,2,4]triazol-3-yl)methyl]amino}benzamidine acetate]

Second part, the molecule before the results:

Row | SMILES | IC50
15 | CCc1cc(C(Nc2ccc(C(=N)N)cc2)c2nn(-c3ncsc3C(=O)O)c(=O)[nH]2)cc2c1OCOC2 (racemic) [Example 179, (R) and (S)-4-{3-[(4-carbamimidoylphenylamino)-(8-ethyl-4H-benzo[1,3]dioxin-6-yl)methyl]-5-oxo-4,5-dihydro-[1,2,4]triazol-1-yl}thiazole-5-carboxylic acid] | 9.9 nM
16 | COc1cc(C(Nc2ccc(C(=N)N)cc2)c2nn(-c3ncsc3C(=O)O)c(=O)[nH]2)c(F)c2c1OCCC2 (racemic) [Example 190, 4-{3-[(R) and (S)-(4-Carbamimidoylphenylamino)-(5-fluoro-8-methoxychroman-6-yl)methyl]-5-oxo-4,5-dihydro-[1,2,4]triazol-1-yl}thiazole-5-carboxylic acid] | 7.9 nM
17 | COCCOc1ccc(C(Nc2ccc(C(=N)N)cc2)c2nn(-c3ccsc3C(=O)O)c(=O)[nH]2)cc1OC (racemic) [Example 195, 3-(3-{(R) and (S)-(4-Carbamimidoylphenylamino)-[3-methoxy-4-(2-methoxyethoxy)phenyl]methyl}-5-oxo-4,5-dihydro-[1,2,4]triazol-1-yl)thiophene-2-carboxylic acid] | 6.2 nM
18 | COc1cc(C(Nc2ccc(C(=N)N)cc2)c2nn(-c3ccsc3C(=O)O)c(=O)[nH]2)ccc1OCCCO (racemic) [Example 206, 3-(3-{(R) and (S)-(4-Carbamimidoylphenylamino)-[4-(3-hydroxypropoxy)-3-methoxyphenyl]methyl}-5-oxo-4,5-dihydro-[1,2,4]triazol-1-yl)thiophene-2-carboxylic acid] | 5.6 nM
19 | COc1cc(C(Nc2ccc(C(=N)N)cc2)c2nn(-c3ccccc3C(N)=O)c(=O)[nH]2)cc2c1OCOC2 (racemic) [Example 211, 2-{3-[(4-Carbamimidoylphenylamino)-(8-methoxy-4H-benzo[1,3]dioxin-6-yl)methyl]-5-oxo-4,5-dihydro[1,2,4]triazol-1-yl}benzamide] | 4.7 nM
20 | C#Cc1cc(OCCO)cc(C(Nc2ccc(C(=N)N)cc2)c2nn(-c3ncccn3)c(=O)[nH]2)c1 (racemic) [Example 212, 4-{[[3-Ethynyl-5-(2-hydroxyethoxy)phenyl]-(5-oxo-1-pyrimidin-2-yl-4,5-dihydro-1H-[1,2,4]triazol-3-yl)methyl]amino}benzamidine] | 5.7 nM
21 | COc1cc(C(Nc2ccc(C(=N)N)cc2)c2nn(-c3ccccc3C(N)=O)c(=O)[nH]2)cc2c1OCCCO2 (racemic) [Example 214, (R) and (S)-2-{3-[(4-Carbamimidoylphenylamino)-(9-methoxy-3,4-dihydro-2H-benzo[b][1,4]dioxepin-7-yl)methyl]-5-oxo-4,5-dihydro[1,2,4]triazol-1-yl}benzoic acid amide acetate] | 3.5 nM
22 | COc1cc(C(Nc2ccc(C(=N)N)cc2)c2nn(-c3ccsc3C(=O)O)c(=O)[nH]2)c(F)c2c1OCC2 (racemic) [Example 215, (R) and (S)-3-{3-[(4-Carbamimidoylphenylamino)-(4-fluoro-7-methoxy-2,3-dihydrobenzofuran-5-yl)methyl]-5-oxo-4,5-dihydro[1,2,4]triazol-1-yl}thiophene-2-carboxylic acid] | 3.4 nM
23 | COc1cc(OCCO)c(F)c(C(Nc2ccc(C(=N)N)c(F)c2)c2nn(-c3ncccn3)c(=O)[nH]2)c1 (racemic) [Example 218, 2-Fluoro-4-{[[2-fluoro-3-(2-hydroxyethoxy)-5-methoxyphenyl]-(5-oxo-1-pyrimidin-2-yl-4,5-dihydro-1H-[1,2,4]triazol-3-yl)methyl]amino}benzamidine] | 52.4 nM
24 | CCOc1cc(OCCO)cc(C(Nc2ccc(C(=N)N)cc2)c2nn(-c3ncccn3)c(=O)[nH]2)c1 (racemic) [Example 220, 4-{[[3-Ethoxy-5-(2-hydroxyethoxy)phenyl]-(5-oxo-1-pyrimidin-2-yl-4,5-dihydro-1H-[1,2,4]triazol-3-yl)methyl]amino}benzamidine] | 7.2 nM
25 | CCOc1cc(O)cc(C(Nc2ccc(C(=N)N)cc2)c2nn(-c3ncccn3)c(=O)[nH]2)c1 (racemic) [Example 221, 4-{[(3-Ethoxy-5-hydroxyphenyl)-(5-oxo-1-pyrimidin-2-yl-4,5-dihydro-1H-[1,2,4]triazol-3-yl)methyl]amino}benzamidine] | 25.8 nM
